The experiment relates to P388 leukemia ip, CD2F1 mice, survival T/C. The experiment in a line: NCI In Vivo Anticancer Drug Screen. Data for tumor model P388 Leukemia (intraperitoneal) in CD2F1 (CDF1) mice. Particulars: endpoint: median survival time, higher = longer survival. Put shortly: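 Mice carrying the transplanted tumor received test compound or vehicle. Survival was recorded in each group, and the value is the treated-group measurement divided by that of the vehicle-treated control group.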

The mark [1] stands for this setting: dose: 60.0 mg/kg/injection, schedule: Q01DX005 (ip), vehicle: Klucel (hydroxypropylcellulose) (HPC).
Where [2] appears, read: dose: 50.0 mg/kg/injection, schedule: Q01DX009 (ip), vehicle: saline with Tween-80.
Setting [3] is: dose: 100.0 mg/kg/injection, schedule: Q01DX009 (ip), vehicle: saline with Tween-80.
[4] abbreviates: dose: 60.0 mg/kg/injection, schedule: Q01DX005 (ip), vehicle: saline with Tween-80.
Setting [5] is: dose: 120.0 mg/kg/injection, schedule: Q01DX005 (ip), vehicle: saline with Tween-80.
Setting [6] is: dose: 25.0 mg/kg/injection, schedule: Q01DX009 (ip), vehicle: saline with Tween-80.
[7] abbreviates: dose: 240.0 mg/kg/injection, schedule: Q01DX005 (ip), vehicle: saline with Tween-80.
Where [8] appears, read: dose: 50.0 mg/kg/injection, schedule: Q01DX009 (ip), vehicle: saline.
[9] abbreviates: dose: 100.0 mg/kg/injection, schedule: Q01DX009 (ip), vehicle: saline.
Setting [10] is: dose: 200.0 mg/kg/injection, schedule: Q01DX009 (ip), vehicle: saline.
Setting [11] is: dose: 50.0 mg/kg/injection, schedule: Q01DX005 (ip), vehicle: saline with Tween-80.
Setting [12] is: dose: 100.0 mg/kg/injection, schedule: Q01DX005 (ip), vehicle: saline with Tween-80.
Where [13] appears, read: dose: 200.0 mg/kg/injection, schedule: Q01DX005 (ip), vehicle: saline with Tween-80.
The mark [14] stands for this setting: dose: 120.0 mg/kg/injection, schedule: Q01DX005 (ip), vehicle: Klucel (hydroxypropylcellulose) (HPC).
[15] abbreviates: dose: 240.0 mg/kg/injection, schedule: Q01DX005 (ip), vehicle: Klucel (hydroxypropylcellulose) (HPC).
The mark [16] stands for this setting: dose: 50.0 mg/kg/injection, schedule: Q01DX005 (ip), vehicle: Klucel (hydroxypropylcellulose) (HPC).
[17] abbreviates: dose: 100.0 mg/kg/injection, schedule: Q01DX005 (ip), vehicle: Klucel (hydroxypropylcellulose) (HPC).
The mark [18] stands for this setting: dose: 200.0 mg/kg/injection, schedule: Q01DX005 (ip), vehicle: Klucel (hydroxypropylcellulose) (HPC).

“And” between values parts separate entries of the source, which are not always exact repeats. Equal entries are not always repeated. Toxic doses and inconclusive results are not listed.

Experimental findings from PubChem BioAssay AID330 (DTP/NCI, 2004) are described below.

On to `CC1=C(C)C(=O)C2=C(OCCCO2)C1=O`, for which the T/C by setting is: (dose: 15.0 mg/kg/injection, schedule: Q01DX005 (ip), vehicle: Klucel (hydroxypropylcellulose) (HPC)) 98 % of control; (dose: 30.0 mg/kg/injection, schedule: Q01DX005 (ip), vehicle: Klucel (hydroxypropylcellulose) (HPC)) 96 % of control; under setting [1], 98 % of control.

For the compound `CCn1c2ccccc2c2cc(N/C=C/C3=[N+](C)c4ccccc4C3(C)C)ccc21`, the T/C is 107 % of control and 111 % of control (dose: 1.56 mg/kg/injection, schedule: Q01DX009 (ip), vehicle: Klucel (hydroxypropylcellulose) (HPC)); 100 % of control and 114 % of control (dose: 3.12 mg/kg/injection, schedule: Q01DX009 (ip), vehicle: Klucel (hydroxypropylcellulose) (HPC)); 116 % of control (2×) and 123 % of control (dose: 6.25 mg/kg/injection, schedule: Q01DX009 (ip), vehicle: Klucel (hydroxypropylcellulose) (HPC)); 109 % of control (dose: 12.5 mg/kg/injection, schedule: Q01DX009 (ip), vehicle: Klucel (hydroxypropylcellulose) (HPC)); 96 % of control (dose: 25.0 mg/kg/injection, schedule: Q01DX009 (ip), vehicle: Klucel (hydroxypropylcellulose) (HPC)).

Take `COCCCNP(=S)(N1CC1)N1CC1`: the T/C was 110 % of control (dose: 3.0 mg/kg/injection, schedule: Q04DX003 (ip), vehicle: saline); 115 % of control (dose: 6.0 mg/kg/injection, schedule: Q04DX003 (ip), vehicle: saline); 170 % of control (dose: 12.5 mg/kg/injection, schedule: Q01DX009 (ip), vehicle: saline); 186 % of control (dose: 25.0 mg/kg/injection, schedule: Q04DX003 (ip), vehicle: saline with Tween-80).

Take `OC1c2ccccc2OC2(N3CCCC3)CCCCC12` (stereo unspecified): the T/C is 98 % of control under setting [2]; 94 % of control under setting [3]; 91 % of control (dose: 200.0 mg/kg/injection, schedule: Q01DX009 (ip), vehicle: saline with Tween-80).

For `Cc1[nH]c(C)c2c(=O)ccsc12`, the T/C under setting [4] was 90 % of control and the T/C under setting [5] was 99 % of control.

Regarding `O=C(O)Cc1ccc2c(c1)sc1nc(-c3ccc(Br)cc3)cn12`, the T/C by setting is: (dose: 100.0 mg/kg/injection, schedule: Q04DX003 (ip), vehicle: Klucel (hydroxypropylcellulose) (HPC)) 101 % of control; (dose: 200.0 mg/kg/injection, schedule: Q04DX003 (ip), vehicle: Klucel (hydroxypropylcellulose) (HPC)) 103 % of control; (dose: 400.0 mg/kg/injection, schedule: Q04DX003 (ip), vehicle: Klucel (hydroxypropylcellulose) (HPC)) 103 % of control.

For `CC1=CC(=O)C=CC1=Nc1ccc(N(C)C)cc1`, the T/C is, setting by setting: under setting [6], 108 % of control; under setting [2], 109 % of control.

Consider `O=C1c2ccccc2C(=O)N1C1CC(=O)n2c1nc1ccccc12` (stereo unspecified), for which the T/C runs as follows: under setting [4], 101 % of control; under setting [5], 95 % of control; under setting [7], 95 % of control.

`Cc1cc2ccccc2cc1N`: the T/C under setting [8] was 106 % of control, the T/C under setting [9] is 100 % of control and the T/C under setting [10] was 97 % of control.

Take `O=C1Nc2cc3c(cc2C(=O)N2C/C(=N/O)CC12)OCO3` (stereo unspecified): the T/C under setting [11] was 107 % of control, the T/C under setting [12] was 99 % of control and the T/C under setting [13] is 101 % of control.

Regarding `C[C@]12CC[C@@H]3c4ccc(O)cc4CC[C@H]3[C@@H]1C[C@@H](O)[C@@H]2O`, the T/C is 112 % of control under setting [8]; 100 % of control under setting [9]; 100 % of control under setting [10]; 91 % of control (dose: 400.0 mg/kg/injection, schedule: Q01DX009 (ip), vehicle: saline).

As to `O=C1C(Sc2ccccc2)C(c2ccccc2)C1Sc1ccccc1` (stereo unspecified), the T/C was 96 % of control under setting [11], 105 % of control under setting [12] and 99 % of control under setting [13].

With `Nc1cc(S(=O)(=O)O)cc2cc(S(=O)(=O)O)cc(O)c12`, the T/C is 96 % of control under setting [1], 98 % of control under setting [14] and 95 % of control under setting [15].

For `Nc1nnc2nc(CC(=O)Cc3ccccc3)c(CC(=O)Cc3ccccc3)nn12`, the T/C runs as follows: (dose: 60.0 mg/kg/injection, schedule: Q01DX005 (ip), vehicle: saline) 101 % of control; (dose: 120.0 mg/kg/injection, schedule: Q01DX005 (ip), vehicle: saline) 100 % of control; (dose: 240.0 mg/kg/injection, schedule: Q01DX005 (ip), vehicle: saline) 100 % of control.

As to `O=C(NC1CCCCC1)C(O)C(O)C(O)C(O)CO` (stereo unspecified), the T/C by setting is: under setting [16], 107 % of control; under setting [17], 107 % of control; under setting [18], 104 % of control.

With `O=C(O)c1n[nH]c2ccccc2c1=O`, the T/C by setting is: (dose: 1.56 mg/kg/injection, schedule: Q01DX009 (ip), vehicle: other) 101 % of control; (dose: 3.13 mg/kg/injection, schedule: Q01DX009 (ip), vehicle: other) 105 % of control; (dose: 6.25 mg/kg/injection, schedule: Q01DX009 (ip), vehicle: other) 97 % of control; (dose: 12.5 mg/kg/injection, schedule: Q01DX009 (ip), vehicle: other) 109 % of control; (dose: 25.0 mg/kg/injection, schedule: Q01DX009 (ip), vehicle: other) 110 % of control and 90 % of control.

Consider `Cc1ccc(C)c(OP2(=O)NC3CCCCC3N2)c1` (stereo unspecified), for which the T/C is 91 % of control (dose: 100.0 mg/kg/injection, schedule: Q04DX002 (ip), vehicle: Klucel (hydroxypropylcellulose) (HPC)) and 89 % of control (dose: 200.0 mg/kg/injection, schedule: Q04DX002 (ip), vehicle: Klucel (hydroxypropylcellulose) (HPC)).

For `C/C1=N/N=C(N)\N=C(\C)CC1`, the T/C was 90 % of control under setting [8], 102 % of control under setting [9] and 101 % of control under setting [10].

As to `CB1NN=C(C)c2sccc21`, the T/C reads like this: under setting [6], 102 % of control; under setting [2], 103 % of control; under setting [3], 86 % of control.

As to `COc1ccc2c(O)c(S(=O)(=O)c3ccc(C)cc3)c(=O)oc2c1`, the T/C under setting [4] is 92 % of control, the T/C under setting [5] is 104 % of control and the T/C under setting [7] is 115 % of control.

In the case of `CN(C)C(C)(C#N)C(N)=O` (stereo unspecified), the T/C by setting is: (dose: 1.56 mg/kg/injection, schedule: Q04DX003 (ip), vehicle: saline) 103 % of control and 93 % of control; (dose: 3.12 mg/kg/injection, schedule: Q04DX003 (ip), vehicle: saline) 101 % of control; (dose: 6.25 mg/kg/injection, schedule: Q04DX003 (ip), vehicle: saline) 100 % of control and 96 % of control and 98 % of control.

`BrCC(Br)=C(Br)Br`: the T/C was 104 % of control (dose: 3.12 mg/kg/injection, schedule: Q01DX009 (ip), vehicle: saline with Tween-80); 106 % of control (dose: 6.25 mg/kg/injection, schedule: Q01DX009 (ip), vehicle: saline with Tween-80); 98 % of control (dose: 12.5 mg/kg/injection, schedule: Q01DX009 (ip), vehicle: saline with Tween-80).

For `COc1ccc(C(C#N)C(=O)C(=O)Nc2ccc(Cl)cc2C)cc1OC` (stereo unspecified), the T/C was 100 % of control under setting [4], 100 % of control under setting [5] and 105 % of control under setting [7].

For `CCC(=O)N1C(=O)C(C)C23c4cc(OC)c(OC)cc4C(=O)N2CCCN13` (stereo unspecified), the T/C by setting is: under setting [1], 100 % of control; under setting [14], 94 % of control; under setting [15], 90 % of control.

For `O=C1NC(=O)C2(CC3CCCC(C2)N3CCO)N1` (stereo unspecified), the T/C is, setting by setting: (dose: 50.0 mg/kg/injection, schedule: Q01DX009 (ip), vehicle: water) 101 % of control; (dose: 100.0 mg/kg/injection, schedule: Q01DX009 (ip), vehicle: water) 101 % of control; (dose: 200.0 mg/kg/injection, schedule: Q01DX009 (ip), vehicle: water) 100 % of control.

Take `Cc1oc2ccccc2c(=O)c1C(=O)O`: the T/C was 99 % of control under setting [16], 100 % of control under setting [17] and 101 % of control under setting [18].
